Measurements as given in patent publication US20220264878A1, “HERBICIDAL COMPOSITION CONTAINING R-TYPE PYRIDYLOXY CARBOXYLIC ACID DERIVATIVE AND USE THEREOF” (Qingdao Kingagroot Chemical Compound Co., Ltd., priority 2019, published 2022).
Where two headings read alike, the source gives them in different places.

Assays:
Assay type in all cases: in vivo
Digitaria sanguinalis = experiment: Post-emergence foliage spray, pot culture, fresh weight inhibition (Tables 151-206; 20 days); settings: Digitaria sanguinalis, 480 h, read-out: Control effect (%) of A applied alone in corresponding dose
Protocol: Table 151-206: Digitaria sanguinalis, Amaranthus retroflexus, Conyza Canadensis, Capsella bursa-pastoris, Eleusine indica were collected in Huangdao of Shandong Province, Sinapis arvensis were collected in Sixian of Anhui Province, Alopecurus japonicus were collected in Tianchang of Anhui Province, Veronica didyma were collected in Siyang of Jiangsu Province.
(§1) The above weeds were cultivated by a pot culture method. […] Full and uniform weed seeds were selected, soaked in warm water at 25° C. for 6 hours, and germinated in a 28° C. biochemical incubator (darkness). The weed seeds that had just germinatedwere evenly placed on the surface of the soil and then covered with 0.5-1 cm soil according to the sizes of seeds.
The culture was carried out in a controllable sunlight greenhouse at 20 to 30° C., in natural light, and relative humidity of 57% to 72%.
(§2) The technical materials were all dissolved in acetone, and diluted with an aqueous solution containing 0.1% emulsifier Tween-80. The dilution is performed as required.
(§3) A ratio of the active ingredient A to the active ingredient B and amounts thereof in each group depends on the characteristics and toxicity of the two agents, as well as the main application purpose of a corresponding formulation. Based on the pre-tests in this study, the dosage of the active ingredient A and B applied alone and in combination were shown in the tables. Water containing the solvent and emulsifier same with the above groups but free of the agents was used as a blank control.
Table 1-48, 51-98, 101-148, 151-206: […] per treatment, that is, a total of 60 weeds were treated in one treatment.
Table 151-206: The agents were used for only once in the experiment. In the stage of weeds with 3˜4 leaves, the weeds were thinned out to maintain 15 weeds per pot and 45 weeds for each treatment, then continued to be cultured to 4˜5 leaves stage of grassy weeds, 5˜6 leaves stage of broadleaf weeds, and treated.
(§4) The well-cultured weeds were evenly placed on a platform with an area of 0.5 m^2, and a solution of agents was sprayed on the stems and leaves thereof by the 3WP-2000-type walking spray tower at a dosage of 450 kg/ha and at a spray pressure of 0.3 MPa. After all the solution was sprayed, the valve was closed. After 30 seconds, the door of the spray tower was opened, and the nutritional bowl was taken out. Then the valve was opened, and the spray tube was cleaned by spraying 50 ml of water.
(§5) A pot-culture method was employed. For the cultivation of weeds, please refer to the Section 1.1), and “Pesticide guidelines for laboratory bioactivity tests—herbicides”. As to a method for applying agents, please refer to the section 2.3.2), that is, a foliage treatment was employed. After the treatment, the weeds were routinely cultured in a greenhouse.
(§6) A method for investigating absolute number was employed, wherein whole seedlings of survival weeds were cut off with a blade along the soil surface, and the fresh weight of the weeds was weighed with an analytical balance. For dead weeds, the fresh weight thereof was zero.
Table 151-206: The investigation was performed after 20 days of the treatment for only once.
Theoretical fresh weight inhibition rate of a combination of two active ingredients in each group was calculated by the Gowing method (E0=X+Y−X*Y/100), and then compared with an actually measured inhibition rate (E), thereby effect of the combination (hereafter referred to as combined effect) on weeds was evaluated: the value of E-E0, which was greater than 10%, corresponded to a synergistic effect, the value of E-E0, which was less than −10%, corresponded to an antagonistic effect, and the value of E-E0, which was from −10% to 10%, corresponded to an additional effect.

Capsella bursa-pastoris = experiment: as above; settings: Capsella bursa-pastoris, 480 h, read-out: Control effect (%) of A applied alone in corresponding dose
Protocol: as §1, §2, §3
In the stage of weeds with 3˜4 leaves, the weeds were thinned out to maintain 15 weeds per pot and 45 weeds for each treatment, then continued to be cultured to 4˜5 leaves stage of grassy weeds, 5˜6 leaves stage of broadleaf weeds, and treated.
as §4, §5, §6
(§7) Wherein, in the formula, X represented the fresh weight inhibition rate of the active ingredient A in a dosage of P, and Y represented the fresh weight inhibition rate of the active ingredient B in a dosage of Q.

Echinochloa caudate = experiment: Post-emergence foliage spray, pot culture, fresh weight inhibition (Tables 1-48, 51-98, 101-148; 24 days)
Protocol: as §1, §2, §3
(§8) In the stage of weeds with 3˜4 leaves, the weeds were thinned out to maintain 15 weeds per pot and 45 weeds for each treatment, then continued to be cultured to 5˜6 leaves stage of grassy weeds, 6˜7 leaves stage of broadleaf weeds, and treated.
as §4, §5, §6, §7

[1] = test system: Echinochloa crusgalli var. zelayensis; experiment: as above; settings: Echinochloa crus-galli, foliar, 576 h, foliage spray, 24 days, read-out: Control effect (%) of B applied alone in corresponding dose
Protocol: as §1, §2, §3, §8, §4, §5, §6, §7

Echinochloa oryzoides = experiment: as above
Protocol: as §1, §2, §3, §8, §4, §5, §6, §7

[2] = A alone 75 g a.i./ha, 20 days after treatment
[3] = A alone 150 g a.i./ha, 20 days after treatment

CCCCCCCCCCCOC(=O)[C@@H](C)Oc1nc(F)c(Cl)c(N)c1Cl [Compound A94]
pest or weed control at 75 g/ha (Digitaria sanguinalis; A 75 g a.i./ha, 20 days): 23.4%
pest or weed control at 150 g/ha (Digitaria sanguinalis; A 150 g a.i./ha, 20 days): 51.7%
pest or weed control at 75 g/ha (Capsella bursa-pastoris; A 75 g a.i./ha, 20 days): 6.2%
pest or weed control at 150 g/ha (Capsella bursa-pastoris; A 150 g a.i./ha, 20 days): 12.6%

CC(C)=NOC(=O)[C@@H](C)Oc1nc(F)c(Cl)c(N)c1Cl [Compound A130]
pest or weed control at 75 g/ha (Digitaria sanguinalis; [2]): 16.7%
pest or weed control at 150 g/ha (Digitaria sanguinalis; [3]): 36.8%
pest or weed control at 75 g/ha (Capsella bursa-pastoris; [2]): 5.4%
pest or weed control at 150 g/ha (Capsella bursa-pastoris; [3]): 13.2%

C[C@@H](Oc1nc(F)c(Cl)c(N)c1Cl)C(=O)OCc1ccccc1 [Compound A141]
pest or weed control at 75 g/ha (Digitaria sanguinalis; A 75 g a.i./ha, 20 days): 27.7%
pest or weed control at 150 g/ha (Digitaria sanguinalis; A 150 g a.i./ha, 20 days): 55.8%
pest or weed control at 75 g/ha (Capsella bursa-pastoris; A 75 g a.i./ha, 20 days): 7.8%
pest or weed control at 150 g/ha (Capsella bursa-pastoris; A 150 g a.i./ha, 20 days): 16.4%

COC(=O)[C@H](Oc1nc(F)c(Cl)c(N)c1Cl)c1ccccc1 [Compound A171]
pest or weed control at 75 g/ha (Digitaria sanguinalis; A 75 g a.i./ha, 20 days): 19.2%
pest or weed control at 150 g/ha (Digitaria sanguinalis; A 150 g a.i./ha, 20 days): 31.9%
pest or weed control at 75 g/ha (Capsella bursa-pastoris; A 75 g a.i./ha, 20 days): 12.2%
pest or weed control at 150 g/ha (Capsella bursa-pastoris; A 150 g a.i./ha, 20 days): 28.9%

CC[C@@H](Oc1nc(F)c(Cl)c(N)c1Cl)C(=O)OC [Compound A172]
pest or weed control at 75 g/ha (Digitaria sanguinalis; A 75 g a.i./ha, 20 days): 21.2%
pest or weed control at 150 g/ha (Digitaria sanguinalis; A 150 g a.i./ha, 20 days): 38.9%
pest or weed control at 75 g/ha (Capsella bursa-pastoris; A 75 g a.i./ha, 20 days): 22.4%
pest or weed control at 150 g/ha (Capsella bursa-pastoris; A 150 g a.i./ha, 20 days): 47.9%

COC(=O)[C@@H](C)Oc1ncc(Cl)c(N)c1Cl [Compound A173]
pest or weed control at 75 g/ha (Digitaria sanguinalis; A 75 g a.i./ha, 20 days): 38.2%
pest or weed control at 150 g/ha (Digitaria sanguinalis; A 150 g a.i./ha, 20 days): 73.6%
pest or weed control at 75 g/ha (Capsella bursa-pastoris; A 75 g a.i./ha, 20 days): 24.8%
pest or weed control at 150 g/ha (Capsella bursa-pastoris; A 150 g a.i./ha, 20 days): 52.4%

C[C@@H](Oc1nc(F)c(Cl)c(N)c1Cl)C(=O)SCc1ccco1 [Compound A211]
pest or weed control at 75 g/ha (Digitaria sanguinalis; A 75 g a.i./ha, 20 days): 31.3%
pest or weed control at 150 g/ha (Digitaria sanguinalis; A 150 g a.i./ha, 20 days): 68.3%
pest or weed control at 75 g/ha (Capsella bursa-pastoris; A 75 g a.i./ha, 20 days): 5.8%
pest or weed control at 150 g/ha (Capsella bursa-pastoris; A 150 g a.i./ha, 20 days): 14.6%

C[C@@H](Oc1ncc(Br)c(N)c1Br)C(=O)O [Compound A212]
pest or weed control at 75 g/ha (Digitaria sanguinalis; A 75 g a.i./ha, 20 days): 11.5%
pest or weed control at 150 g/ha (Digitaria sanguinalis; A 150 g a.i./ha, 20 days): 24.6%
pest or weed control at 75 g/ha (Capsella bursa-pastoris; A 75 g a.i./ha, 20 days): 8.6%
pest or weed control at 150 g/ha (Capsella bursa-pastoris; A 150 g a.i./ha, 20 days): 14.5%

Cc1c(F)c(F)c(COC(=O)[C@@H](C)Oc2nc(F)c(Cl)c(N)c2Cl)c(F)c1F [Compound A213]
pest or weed control at 75 g/ha (Digitaria sanguinalis; [2]): 14.9%
pest or weed control at 150 g/ha (Digitaria sanguinalis; [3]): 31.2%
pest or weed control at 75 g/ha (Capsella bursa-pastoris; [2]): 14.6%
pest or weed control at 150 g/ha (Capsella bursa-pastoris; [3]): 26.8%

CCCCOCCOC(=O)[C@@H](C)Oc1nc(F)c(Cl)c(N)c1Cl [Compound A214]
pest or weed control at 75 g/ha (Digitaria sanguinalis; [2]): 21.9%
pest or weed control at 150 g/ha (Digitaria sanguinalis; [3]): 44.6%
pest or weed control at 75 g/ha (Capsella bursa-pastoris; [2]): 24.8%
pest or weed control at 150 g/ha (Capsella bursa-pastoris; [3]): 46.2%

COc1cc(OC)nc(Oc2cccc(Oc3nc(OC)cc(OC)n3)c2C(=O)O)n1 [bispyribac-sodium]
pest or weed control at 1.875 g/ha (Echinochloa caudate; Echinochloa, 576 h, bispyribac-sodium 1.875 g a.i./ha, read-out: Control effect (%) of B applied alone in corresponding dose): 5.5%
pest or weed control at 3.75 g/ha (Echinochloa caudate; Echinochloa, 576 h, bispyribac-sodium 3.75 g a.i./ha, read-out: Control effect (%) of B applied alone in corresponding dose): 16%
pest or weed control at 7.5 g/ha (Echinochloa caudate; Echinochloa, 576 h, bispyribac-sodium 7.5 g a.i./ha, read-out: Control effect (%) of B applied alone in corresponding dose): 44.9%
pest or weed control at 15 g/ha (Echinochloa caudate; Echinochloa, 576 h, bispyribac-sodium 15 g a.i./ha, read-out: Control effect (%) of B applied alone in corresponding dose): 62.1%
pest or weed control at 1.875 g/ha ([1]; B 1.875 g a.i./ha): 5.3%
pest or weed control at 3.75 g/ha ([1]; B 3.75 g a.i./ha): 17.4%
pest or weed control at 7.5 g/ha ([1]; B 7.5 g a.i./ha): 43.4%
pest or weed control at 15 g/ha ([1]; B 15 g a.i./ha): 62.9%
pest or weed control at 1.875 g/ha (Echinochloa oryzoides; Echinochloa oryzoides, 576 h, Table 102, 1.875 g a.i./ha, read-out: Control effect (%) of B applied alone in corresponding dose): 4.7%
pest or weed control at 3.75 g/ha (Echinochloa oryzoides; Echinochloa oryzoides, 576 h, Table 102, 3.75 g a.i./ha, read-out: Control effect (%) of B applied alone in corresponding dose): 18.2%
pest or weed control at 7.5 g/ha (Echinochloa oryzoides; Echinochloa oryzoides, 576 h, Table 102, 7.5 g a.i./ha, read-out: Control effect (%) of B applied alone in corresponding dose): 44.1%
pest or weed control at 15 g/ha (Echinochloa oryzoides; Echinochloa oryzoides, 576 h, Table 102, 15 g a.i./ha, read-out: Control effect (%) of B applied alone in corresponding dose): 62%

CS(=O)(=O)c1ccc(C(=O)C2C(=O)CCCC2=O)c(Cl)c1COCC1CCCO1 (centres unmarked) [tefuryltrione]
Control effect (%) of B applied alone in corresponding dose (Echinochloa caudate; Table 81, 7.5 g a.i./ha): 6.8%
Control effect (%) of B applied alone in corresponding dose (Echinochloa caudate; Table 81, 15 g a.i./ha): 13.1%
Control effect (%) of B applied alone in corresponding dose (Echinochloa caudate; Table 81, 30 g a.i./ha): 41.3%
Control effect (%) of B applied alone in corresponding dose (Echinochloa caudate; Table 81, 60 g a.i./ha): 65.4%
Control effect (%) of B applied alone in corresponding dose (Echinochloa oryzoides; B 7.5 g a.i./ha): 8.9%
Control effect (%) of B applied alone in corresponding dose (Echinochloa oryzoides; B 15 g a.i./ha): 18.8%
Control effect (%) of B applied alone in corresponding dose (Echinochloa oryzoides; B 30 g a.i./ha): 46.1%
Control effect (%) of B applied alone in corresponding dose (Echinochloa oryzoides; B 60 g a.i./ha): 69.3%

Cc1cc(C)n(Cc2c(S(C)(=O)=O)ccc(C(=O)c3c(C)nn(C)c3OC(=O)c3cn(C)nc3C)c2Cl)n1 [tripyrasulfone]
Control effect (%) of B applied alone in corresponding dose (Echinochloa caudate; Table 80, 18.75 g a.i./ha): 4.6%
Control effect (%) of B applied alone in corresponding dose (Echinochloa caudate; Table 80, 37.5 g a.i./ha): 16.0%
Control effect (%) of B applied alone in corresponding dose (Echinochloa caudate; Table 80, 75 g a.i./ha): 42.6%
Control effect (%) of B applied alone in corresponding dose (Echinochloa caudate; Table 80, 150 g a.i./ha): 74.3%
Control effect (%) of B applied alone in corresponding dose (Echinochloa oryzoides; B 18.75 g a.i./ha): 8.9%
Control effect (%) of B applied alone in corresponding dose (Echinochloa oryzoides; B 37.5 g a.i./ha): 18.0%
Control effect (%) of B applied alone in corresponding dose (Echinochloa oryzoides; B 75 g a.i./ha): 44.6%
Control effect (%) of B applied alone in corresponding dose (Echinochloa oryzoides; B 150 g a.i./ha): 75.2%
